Assay results published in US9023859B2, “Composition and method for treating or preventing skeletal muscle fibrosis” (State of Israel, Ministry of Agriculture, Agricultural …, priority 2007, dated 2015).

Columns and labels:
Mdx mice [1] = test: Collagen content (Sirius red) and collagen α1(I) gene expression (in situ hybridization) in quadriceps and tibialis muscles; format: in vivo; conditions: I.P. 3 μg/mouse every other day, 4 weeks from 5 weeks of age
Experimental: Mdx mice were treated either with halofuginone by I.P. injection every other day (3 μg/mouse) starting at 5 weeks of age for 4 weeks, or with saline vehicle. C57B mice were used as controls. At the end of the 4 week period, tibialis anterior (fast) and quadriceps (slow) muscles were removed for evaluation of fibrosis by Sirius red staining for collagen content, and by in situ hybridization of collagen α1(I) gene expression.

Mdx mice [2] = test: Effect on fibrosis (collagen by Sirius red, image analysis) in diaphragm, gastrochnemius and tibialis muscles; format: in vivo; conditions: I.P. 5 μg/mouse every other day; for reduction of collagen levels: diaphragm; for reduction of collagen content: gastrochnemius
Experimental: Halofuginone was administered by I.P injection to mdx mice (n=7) from 3 weeks of age every other day at a concentration of 5 μg/mouse. The wild type (C57/BL) and mdx mice without halofuginone served as controls. At the age of 7 and 11 weeks the mice were sacrificed and the diaphragm, gastrochnemius and the tibialis were fixed for histology and samples were frozen for further analysis. Sections were stained for collagen by Sirius red and with methyl green as a counter stain. Image analysis using the Image Pro software was performed for statistical evaluation of the effect of halofuginone on collagen content. For the image analysis, images were taken from 3 animals/group and 4 replicates from each animal/tissue. The results are the ratio of red (R) to green color (G).

Mdx mice [3] = test: Effect on muscle regeneration (diaphragm central nuclei counting); format: in vivo, mouse; conditions: 5 μg or 7.5 μg for 1 or 2 months from 3 weeks of age; dose-dependent
Experimental: Mdx mice were treated with halofuginone 5 μg or 7.5 μg for 1 or 2 months starting at age of 3 weeks. The untreated mdx mice served as controls. At the end of the experiment, the diaphragms were taken for hematoxyline & eosin staining before central nuclei counting. The results are the mean±SE of 20 photos taken from 3 different mice. Each photo contained approximately 120 fibers

[4] = test system: myostatin gene expression; test: Myostatin gene expression in fibrotic liver (preliminary experiments); format: in vivo

Compound: O=C(CC1NCCC[C@H]1O)Cn1cnc2cc(Br)c(Cl)cc2c1=O (stereo in doubt) [halofuginone, 7-bromo-6-chloro-3-[3-(3-hydroxy-2-piperidinyl)-2-oxopropyl]-4(3H)-quinazolinone]
- increase in amount of collagen fibers in mdx muscles (Mdx mice [1]; Sirius red): almost completely prevented
- increase in expression of collagen α1(I) gene in mdx muscles (Mdx mice [1]; in situ hybridization): almost completely prevented
- reduction of collagen levels (Mdx mice [2]; 7 weeks of age (4 weeks of treatment)): 25%
- reduction of collagen levels (Mdx mice [2]; 11 weeks of age (8 weeks of treatment)): 53%
- reduction of collagen content (Mdx mice [2]; 7 weeks of age): 25%
- reduction of collagen content (Mdx mice [2]; 11 weeks of age): 33%
- effect on collagen content (Mdx mice [2]; tibialis muscle): No effect
- number of diaphragm central nuclei (Mdx mice [3]): major reduction
- myostatin gene expression [4]: inhibition
